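Briefly, cells in 96-well plates were exposed to five compound concentrations for 48 h, and endpoints were estimated by linear interpolation. At the GI50, growth is halved.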 Active and inactive are the calls of the source. Rule as the data show it: active = GI50 up to about 1.1 µM and inactive = higher.
Key:
Experiment in all cases: NCI tumour cell line growth inhibition, 48 h
[1] = system: SK-MEL-2
[2] = system: HCT-15
[3] = system: HOP-62
[4] = system: SR
[5] = system: NCI-H226
[6] = system: MOLT-4
[7] = system: OVCAR-5
[8] = system: MDA-MB-435
[9] = system: OVCAR-4
[10] = system: ACHN
[11] = system: PC-3
[12] = system: HOP-92
[13] = system: DU-145
[14] = system: LOX IMVI
[15] = system: HCT-116
[16] = system: IGROV-1
[17] = system: SF-268
[18] = system: OVCAR-3
[19] = system: A549
[20] = system: SF-539

Measured: GI50

Cc1cc(O)c(C(C)C)cc1NC(=O)Nc1cccc2ccccc12
inactive: [1] 15.3 µM | [3] 16.4 µM | [4] 26.6 µM | [5] 19.5 µM | [6] 33.8 µM | [7] 17.8 µM | [8] 15.9 µM | [9] 6.43 µM | [10] 14.6 µM | [11] 13.7 µM | [12] 17.4 µM | [13] 15 µM | [14] 19.8 µM | [15] 15.6 µM | [16] 14.3 µM | [17] 17.3 µM | [18] 16 µM | [19] 17.5 µM
20.7 µM: [2]

NCC1CCCCC1.O=C(O)NCC1CCCCC1
23.8 µM: [2]
inactive: [1] 14.1 µM | [3] 17.5 µM | [4] 23.4 µM | [5] 17.9 µM | [6] 15.2 µM | [7] 31.9 µM | [8] 22.9 µM | [9] 35.6 µM | [10] 23.9 µM | [11] 17.7 µM | [12] 3.95 µM | [13] 21.1 µM | [14] 15.3 µM | [15] 27.6 µM | [16] 9.12 µM | [17] 12.8 µM | [18] 4.89 µM | [19] 30.1 µM

Cc1n2nc(N)sc2n[n+]1CC(=O)c1ccccc1
> 100 µM: [2]
inactive: [1] > 100 µM | [3] > 100 µM | [5] > 100 µM | [6] > 100 µM | [7] > 100 µM | [8] > 100 µM | [20] > 100 µM | [9] > 100 µM | [10] > 100 µM | [11] > 100 µM | [13] > 100 µM | [14] > 100 µM | [15] > 100 µM | [16] > 100 µM | [17] > 100 µM | [18] > 100 µM | [19] > 100 µM

NCCSC1(O)C(=O)c2ccccc2-c2ccccc21 (stereo not drawn)
1.49 µM: [2]
active: [4] 0.0472 µM | [6] 0.181 µM | [8] < 0.01 µM | [9] 0.207 µM | [10] 1.05 µM | [13] 1.06 µM | [14] 0.256 µM | [15] 0.176 µM | [18] < 0.01 µM | [19] 0.719 µM
inactive: [1] 1.61 µM | [3] 1.53 µM | [5] 1.33 µM | [7] 1.53 µM | [20] 1.15 µM | [11] 1.25 µM | [16] 1.8 µM | [17] 1.5 µM

Nc1nc(N)c2c(-c3ccccc3)ccnc2n1
inactive: [1] > 100 µM | [3] > 100 µM | [4] > 100 µM | [5] 40.4 µM | [6] > 10 µM | [7] > 100 µM | [8] > 100 µM | [9] > 100 µM | [10] > 100 µM | [11] > 100 µM | [12] 81.7 µM | [13] > 100 µM | [14] > 100 µM | [15] > 100 µM | [16] > 100 µM | [17] > 100 µM | [18] > 100 µM

COC(=O)c1ccc(/C=C2\Oc3ccccc3C2=O)cc1
inactive: [3] > 100 µM | [4] > 100 µM | [5] > 100 µM | [6] > 100 µM | [8] > 100 µM | [20] > 100 µM | [9] > 100 µM | [10] > 100 µM | [11] > 100 µM | [13] > 100 µM | [15] > 100 µM | [16] > 100 µM | [17] > 100 µM | [18] > 100 µM | [19] > 100 µM
> 100 µM: [2]

NC1CC(=O)c2cc(Cl)sc21 (stereo not drawn)
> 100 µM: [2]
inactive: [1] > 100 µM | [3] > 100 µM | [5] > 100 µM | [7] > 100 µM | [8] > 100 µM | [20] > 100 µM | [9] > 100 µM | [10] > 100 µM | [11] > 100 µM | [12] > 100 µM | [13] > 100 µM | [14] > 100 µM | [15] > 100 µM | [16] > 100 µM | [17] > 100 µM | [18] > 100 µM | [19] > 100 µM

NNC(=S)N1CCN(C(=S)NN)CC1
inactive: [1] > 100 µM | [3] > 100 µM | [4] > 100 µM | [6] > 100 µM | [7] > 100 µM | [8] > 100 µM | [9] 28.8 µM | [10] > 100 µM | [11] > 100 µM | [12] > 100 µM | [13] > 100 µM | [14] 58.1 µM | [15] > 100 µM | [16] 43.4 µM | [17] > 100 µM | [18] > 100 µM | [19] > 100 µM
